Reference: patent US10183950B2, “Thienopyrimidine inhibitors of atypical protein kinase C” (Cancer Research Technology Limited, priority 2011, dated 2019)
Like-named read-outs stand apart in the source and are kept apart here.

Biological target: T1, full-length human PKCι (Homo sapiens, UniProt P41743)
T1 construct: Recombinant, full-length human PKCι expressed in Sf21 insect cells is also commercially available; purchased; host or cells: Sf21 insect cells
T1 sequence (P41743 1-596): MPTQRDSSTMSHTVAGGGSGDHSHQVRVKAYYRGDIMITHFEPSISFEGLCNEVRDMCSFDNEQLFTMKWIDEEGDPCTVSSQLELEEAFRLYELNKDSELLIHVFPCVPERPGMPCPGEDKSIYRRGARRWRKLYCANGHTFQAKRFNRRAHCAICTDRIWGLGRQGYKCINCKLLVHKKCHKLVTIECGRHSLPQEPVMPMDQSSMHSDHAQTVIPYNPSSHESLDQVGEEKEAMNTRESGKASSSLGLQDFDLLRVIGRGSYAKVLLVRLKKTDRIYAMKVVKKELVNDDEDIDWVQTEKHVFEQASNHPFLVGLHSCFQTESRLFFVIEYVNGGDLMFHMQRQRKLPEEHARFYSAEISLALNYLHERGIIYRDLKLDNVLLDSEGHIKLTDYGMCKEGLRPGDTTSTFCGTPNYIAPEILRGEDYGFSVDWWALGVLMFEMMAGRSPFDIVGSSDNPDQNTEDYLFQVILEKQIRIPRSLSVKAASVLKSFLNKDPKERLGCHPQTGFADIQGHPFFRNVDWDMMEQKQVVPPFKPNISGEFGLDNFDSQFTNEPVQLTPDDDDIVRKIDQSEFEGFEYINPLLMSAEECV
Experiment: PKCι IC50 IMAP fluorescence polarisation assay, full-length enzyme
Format: biochemical
Details: full length PKCi at 15 μM ATP
Description: Assays are based on the ability of PKCι to phosphorylate a commercially available peptide substrate in vitro. […] Recombinant, full-length human PKCι expressed in Sf21 insect cells is also commercially available. Recombinant, kinase-domain human PKCι is expressed and purified in-house.
The procedure below explains how dose response curves for inhibitors of PKCι are obtained.
Compounds to be tested are dissolved in 100% DMSO. […] 1 μl is plated into 384 well black low-binding flat bottomed assay plates which are used immediately. Dilutions and additions of compound to assay plates are carried out using Matrix WellMate® and Matrix PlateMate® Plus liquid handling systems.
The final concentration of peptide substrate in the assay is 100 nM. […] Relevant controls are included, namely no compound and no enzyme. […] The reaction is allowed to incubate for 60 minutes at room temperature, before the reaction is stopped and developed by the addition of 20 μl IMAP™ development reagent (Molecular Devices). IMAP development reagent consists of 0.25% (v/v) IMAP progressive binding reagent, 17% (v/v) IMAP progressive binding buffer A and 3% (v/v) IMAP progressive binding buffer B. The plates are then incubated for 2 hours at room temperature before being read using an appropriate plate reader, for example a Molecular Devices HT Analyst or a BMG Pherastar.

[1] = read-out: IC50 in IMAP assay against full length PKCi
[2] = read-out: IC50 in IMAP assay against full length PKCi (Activity)

Structure (SMILES)	IC50 [1] [µM]	IC50 [2] [µM]
COc1ccc(C(C)C)cc1-c1c(C)sc2c(NC[C@@H](N)Cc3ccccc3)nc(-c3ccncc3)nc12 [compound 462, (S)-N*1*-[7-(5-Isopropyl-2-methoxy-phenyl)-6-methyl-2-pyridin-4-yl-thieno[3,2-d]pyrimidin-4-yl]-3-phenyl-propane-1,2-diamine]	10 to 40	–
Brc1csc2c(NC[C@H]3CCCN3)nc(-c3ccncc3)nc12 [compound 342, (7-Bromo-2-pyridin-4-yl-thieno[3,2-d]pyrimidin-4-yl)-(R)-1-pyrrolidin-2-ylmethyl-amine]	10 to 40	–
CC1(C)CCc2c(sc3nc(-c4ccncc4)nc(NCCN)c23)C1 [compound 43, N*1*-(7,7-Dimethyl-2-pyridin-4-yl-5,6,7,8-tetrahydro-benzo[4,5]thieno[2,3-d]pyrimidin-4-yl)-ethane-1,2-diamine]	–	1 to 10
N[C@H](CNc1nc(-c2ccncc2F)nc2c(-c3ccccc3)csc12)Cc1ccccc1 [compound 434, (S)-N*1*-[2-(3-Fluoro-pyridin-4-yl)-7-phenyl-thieno[3,2-d]pyrimidin-4-yl]-3-phenyl-propane-1,2-diamine]	1 to 10	–
CC(C)(C)NC(=O)c1csc2c(NC[C@@H](N)Cc3ccccc3)nc(-c3ccncc3)nc12 [compound 557, 4-((S)-2-Amino-3-phenyl-propylamino)-2-pyridin-4-yl-thieno[3,2-d]pyrimidine-7-carboxylic acid tert-butylamide]	1 to 10	–
NCc1ccc(-c2csc3c(NCC(N)Cc4ccccc4)nc(-c4ccncc4F)nc23)cc1 (stereo in doubt) [compound 427, (R)-N*1*-[7-(4-Aminomethyl-phenyl)-2-(3-fluoro-pyridin-4-yl)-thieno[3,2-d]pyrimidin-4-yl]-3-phenyl-propane-1,2-diamine]	1 to 10	–
CC(C)[C@H](N)CNc1nc(-c2ccncc2)nc2c(Br)csc12 [compound 347, (S)-N*1*-(7-Bromo-2-pyridin-4-yl-thieno[3,2-d]pyrimidin-4-yl)-3-methyl-butane-1,2-diamine]	0.1 to 1	–
CC(C)NC(=O)c1csc2c(NC[C@@H](N)Cc3ccccc3)nc(-c3ccncc3)nc12 [compound 555, 4-((S)-2-Amino-3-phenyl-propylamino)-2-pyridin-4-yl-thieno[3,2-d]pyrimidine-7-carboxylic acid isopropylamide]	1 to 10	–
CC(C)[C@](C)(O)C#Cc1csc2c(NC[C@@H](N)Cc3ccccc3)nc(-c3ccncc3)nc12 [compound 524, (S)-1-[4-((S)-2-Amino-3-phenyl-propylamino)-2-pyridin-4-yl-thieno[3,2-d]pyrimidin-7-yl]-3,4-dimethyl-pent-1-yn-3-ol]	1 to 10	–
c1cn(Cc2ccc(Nc3cc(-c4nc(N[C@@H]5CCNC5)c5sccc5n4)ccn3)cc2)cn1 [compound 614, {2-[2-(4-Imidazol-1-ylmethyl-phenylamino)-pyridin-4-yl]-thieno[3,2-d]pyrimidin-4-yl}-(R)-pyrrolidin-3-yl-amine]	0.1 to 1	–
CN1CCN(c2cccc(Nc3cc(-c4nc(N[C@@H]5CCNC5)c5sccc5n4)ccn3)c2)CC1 [compound 605, (2-{2-[3-(4-Methyl-piperazin-1-yl)-phenylamino]-pyridin-4-yl}-thieno[3,2-d]pyrimidin-4-yl)-(R)-pyrrolidin-3-yl-amine]	0.1 to 1	–
CCC(C)(C)C(=O)Nc1csc2c(N[C@@H]3CCNC3)nc(-c3ccncc3)nc12 [compound 471, 2,2-Dimethyl-N-[2-pyridin-4-yl-4-((R)-pyrrolidin-3-ylamino)-thieno[3,2-d]pyrimidin-7-yl]-butyramide]	10 to 40	–
CC(C)(C)c1sc2c(NC[C@@H](N)Cc3ccccc3)nc(-c3ccncc3)nc2c1-c1ccn[nH]1 [compound 468, (S)-N*1*-[6-tert-Butyl-7-(2H-pyrazol-3-yl)-2-pyridin-4-yl-thieno[3,2-d]pyrimidin-4-yl]-3-phenyl-propane-1,2-diamine]	1 to 10	–
CN(C)C(=O)c1csc2c(NC[C@@H](N)Cc3ccccc3)nc(-c3ccncc3)nc12 [compound 550, 4-((S)-2-Amino-3-phenyl-propylamino)-2-pyridin-4-yl-thieno[3,2-d]pyrimidine-7-carboxylic acid dimethylamide]	1 to 10	–
Cc1ccc(-c2csc3c(NC[C@@H](N)Cc4ccccc4)nc(-c4ccncc4)nc23)o1 [compound 412, (S)-N*1*-[7-(5-Methyl-furan-2-yl)-2-pyridin-4-yl-thieno[3,2-d]pyrimidin-4-yl]-3-phenyl-propane-1,2-diamine]	1 to 10	–
CC(C)(C)c1sc2c(NC[C@@H](N)Cc3ccccc3)nc(-c3ccncc3)nc2c1-c1ccoc1 [compound 445, (S)-N*1*-(6-tert-Butyl-7-furan-3-yl-2-pyridin-4-yl-thieno[3,2-d]pyrimidin-4-yl)-3-phenyl-propane-1,2-diamine]	10 to 40	–
N[C@H](CNc1nc(-c2ccncc2F)nc2sc3c(c12)CCCC3)Cc1ccccc1 [compound 101, (S)-N*1*-[2-(3-Fluoro-pyridin-4-yl)-5,6,7,8-tetrahydro-benzo[4,5]thieno[2,3-d]pyrimidin-4-yl]-3-phenyl-propane-1,2-diamine]	–	1 to 10
COCC#Cc1csc2c(NC[C@@H](N)Cc3ccccc3)nc(-c3ccncc3)nc12 [compound 400, (S)-N*1*-[7-(3-Methoxy-prop-1-ynyl)-2-pyridin-4-yl-thieno[3,2-d]pyrimidin-4-yl]-3-phenyl-propane-1,2-diamine]	< 0.1	–
F[C@H]1CN(Cc2ccccc2)C[C@@H]1Nc1nc(-c2ccncc2)nc2ccsc12 [compound 315, ((3S,4S)-1-Benzyl-4-fluoro-pyrrolidin-3-yl)-(2-pyridin-4-yl-thieno[3,2-d]pyrimidin-4-yl)-amine]	10 to 40	–
N[C@H](CNc1nc(-c2ccncc2F)nc2ccsc12)Cc1ccccc1 [compound 355, (S)-N*1*-[2-(3-Fluoro-pyridin-4-yl)-thieno[3,2-d]pyrimidin-4-yl]-3-phenyl-propane-1,2-diamine]	1 to 10	–
N[C@H](CNc1nc(-c2ccncc2)nc2c(C#CCCO)csc12)Cc1ccccc1 [compound 531, 4-[4-((S)-2-Amino-3-phenyl-propylamino)-2-pyridin-4-yl-thieno[3,2-d]pyrimidin-7-yl]-but-3-yn-1-ol]	< 0.1	–
c1cc(-c2nc(N[C@@H]3CCNC3)c3scc(-c4ccn[nH]4)c3n2)ccn1 [compound 403, [7-(2H-Pyrazol-3-yl)-2-pyridin-4-yl-thieno[3,2-d]pyrimidin-4-yl]-(R)-pyrrolidin-3-yl-amine]	< 0.1	–
N[C@H](CNc1nc(-c2ccncc2)nc2c(Nc3ccncn3)csc12)Cc1ccccc1 [compound 489, N*4*-((S)-2-Amino-3-phenyl-propyl)-2-pyridin-4-yl-N*7*-pyrimidin-4-yl-thieno[3,2-d]pyrimidine-4,7-diamine]	1 to 10	–
COc1ccccc1C[C@H](N)CNc1nc(-c2ccncc2)nc2sc3c(c12)CCCC3 [compound 49, (S)-3-(2-methoxy-phenyl)-N*1*-(2-pyridin-4-yl-5,6,7,8-tetrahydro-benzo[4,5]thieno[2,3-d]pyrimidin-4-yl)-propane-1,2-diamine]	–	1 to 10
NCCNc1nc(-c2ccncc2)nc2sc3c(c12)CCN(C(=O)C1CC1)C3 [compound 108, [4-(2-Amino-ethylamino)-2-pyridin-4-yl-5,8-dihydro-6H-pyrido[4′,3′:4,5]thieno[2,3-d]pyrimidin-7-yl]-cyclopropyl-methanone]	–	10 to 40
CN(C)S(=O)(=O)c1ccc(Nc2cc(-c3nc(N[C@@H]4CCNC4)c4sccc4n3)ccn2)cc1 [compound 610, N,N-Dimethyl-4-{4-[4-((R)-pyrrolidin-3-ylamino)-thieno[3,2-d]pyrimidin-2-yl]-pyridin-2-ylamino}-benzenesulfonamide]	1 to 10	–
NCCNc1nc(-c2ccncc2)nc2sc3c(c12)CCN(C(=O)C1CCC1)C3 [compound 109, [4-(2-Amino-ethylamino)-2-pyridin-4-yl-5,8-dihydro-6H-pyrido[4′,3′:4,5]thieno[2,3-d]pyrimidin-7-yl]-cyclobutyl-methanone]	–	10 to 40
Cc1ccc(Nc2cc(-c3nc(N[C@@H]4CCNC4)c4sccc4n3)ccn2)nn1 [compound 588, {2-[2-(6-Methyl-pyridazin-3-ylamino)-pyridin-4-yl]-thieno[3,2-d]pyrimidin-4-yl}-(R)-pyrrolidin-3-yl-amine]	0.1 to 1	–
